ChEMBL document CHEMBL4130451, “Design and Synthesis of N-Aryl Phenoxyethoxy Pyridinones as Highly Selective and CNS Penetrant mGlu3 NAMs” (ACS Med Chem Lett, 2017)
In brackets after ≈: the same amount, converted by molar mass. Activity calls are given as the source filed them. No cut-off for these calls is given here.

Columns and labels:
[1] = target: Sodium-dependent dopamine transporter (Homo sapiens) (UniProt Q01959); assay: Inhibition of human DAT at 10 uM relative to control
[2] = species on record: Rattus norvegicus; assay: Inhibition of rat central GABA-A receptor flunitrazepam site at 10 uM relative to control
[3] = target: T1, Glutamate NMDA receptor (Rattus norvegicus) (UniProt P35439+Q00959+Q00960+Q00961+Q62645+Q8VHN2+Q9R1M7); assay: Inhibition of rat glutamate NMDA receptor agonist binding site at 10 uM relative to control; type: protein-complex assay
[4] = Kinetic solubility of the compound in PBS at pH 7.4; type: physicochemical; details: read-out: Kinetic_solubility
[5] = target: Alpha-1D adrenergic receptor (Homo sapiens) (UniProt P25100); assay: Inhibition of human adrenergic alpha 1D receptor at 10 uM relative to control
Chain of Alpha-1D adrenergic receptor (Homo sapiens) (P25100 whole entry): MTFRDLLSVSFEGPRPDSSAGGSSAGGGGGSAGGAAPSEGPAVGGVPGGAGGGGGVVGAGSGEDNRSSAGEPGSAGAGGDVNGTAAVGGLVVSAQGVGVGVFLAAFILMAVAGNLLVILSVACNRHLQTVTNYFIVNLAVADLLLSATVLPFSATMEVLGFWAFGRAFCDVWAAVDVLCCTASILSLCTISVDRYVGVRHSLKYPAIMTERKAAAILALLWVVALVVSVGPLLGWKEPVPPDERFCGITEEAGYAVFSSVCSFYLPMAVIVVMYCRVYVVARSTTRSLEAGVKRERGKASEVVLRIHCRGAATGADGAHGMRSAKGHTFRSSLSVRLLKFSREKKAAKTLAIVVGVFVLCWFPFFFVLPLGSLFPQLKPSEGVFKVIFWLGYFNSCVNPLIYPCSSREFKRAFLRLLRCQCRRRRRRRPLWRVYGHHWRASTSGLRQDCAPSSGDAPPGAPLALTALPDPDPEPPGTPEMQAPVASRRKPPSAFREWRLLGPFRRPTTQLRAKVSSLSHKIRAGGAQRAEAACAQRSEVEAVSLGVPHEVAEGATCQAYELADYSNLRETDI

[6] = target: Endothelin receptor type B (Homo sapiens) (UniProt P24530); assay: Inhibition of human endothelin B receptor at 10 uM relative to control
[7] = target: Sigma non-opioid intracellular receptor 1 (Homo sapiens) (UniProt Q99720); assay: Inhibition of human sigma 1 receptor at 10 uM relative to control
Chain of Sigma non-opioid intracellular receptor 1 (Homo sapiens) (Q99720 whole entry): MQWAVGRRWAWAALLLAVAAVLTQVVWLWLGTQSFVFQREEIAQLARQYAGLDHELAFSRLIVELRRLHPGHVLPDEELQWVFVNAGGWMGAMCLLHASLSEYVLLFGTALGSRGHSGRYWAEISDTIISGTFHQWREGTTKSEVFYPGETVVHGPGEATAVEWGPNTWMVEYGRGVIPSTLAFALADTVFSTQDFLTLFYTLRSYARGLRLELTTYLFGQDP

[8] = Brain to plasma partition coefficient, Kp of the compound in mouse; type: ADME
[9] = target: Adenosine receptor A3 (Homo sapiens) (UniProt P0DMS8); assay: Inhibition of human adenosine A3 receptor at 10 uM relative to control
[10] = target: Metabotropic glutamate receptor 2 (Rattus norvegicus, UniProt P31421); assay: Negative allosteric modulation of rat mGlu2 receptor expressed in HEK293 cells coexpressing Galpha15 assessed as inhibition of glutamate induced-calcium mobilization preincubated for 2.3 mins followed by glutamate addition measured for 1.9 mins by Fluo-4 AM dye based fluorescence assay; type: functional, cell-based
[11] = Unbound brain to plasma concentration ratio in Harlan CD-1 mouse at 3 mg/kg, ip by LC/MS-MS analysis; type: ADME, organism-based; details: read-out: K(p,uu,brain)
[12] = target: T1, Glutamate NMDA receptor (Rattus norvegicus); assay: Inhibition of rat glutamate NMDA receptor glycine binding site at 10 uM relative to control; type: protein-complex assay
[13] = target: Metabotropic glutamate receptor 3 (Rattus norvegicus, UniProt P31422); assay: (§1) Negative allosteric modulation of rat mGlu3 receptor expressed in TREX cells coexpressing Galpha15 assessed as inhibition of glutamate induced-calcium mobilization preincubated for 2.3 mins followed by glutamate addition measured for 2.6 mins by Fluo-4 AM dye based fluorescence assay; type: functional, cell-based
[14] = target: L-type calcium channel, dihydropyridine site (Rattus norvegicus, UniProt P22002+P27732+Q02485); assay: Inhibition of rat L-type calcium channel dihydropyridine site at 10 uM relative to control; type: protein assay
[15] = target: D(1A) dopamine receptor (Homo sapiens) (UniProt P21728); assay: Inhibition of human dopamine D1 receptor at 10 uM relative to control
[16] = target: Sodium-dependent noradrenaline transporter (Homo sapiens) (UniProt P23975); assay: Inhibition of human NET at 10 uM relative to control
[17] = target: Mu-type opioid receptor (Homo sapiens) (UniProt P35372); assay: Inhibition of human mu opioid receptor at 10 uM relative to control
[18] = target: 5-hydroxytryptamine receptor 1A (Homo sapiens) (UniProt P08908); assay: Inhibition of human 5-HT1A receptor at 10 uM relative to control
[19] = target: Glucocorticoid receptor (Homo sapiens) (UniProt P04150); assay: Inhibition of human glucocorticoid receptor at 10 uM relative to control
[20] = target: Sodium-dependent serotonin transporter (Homo sapiens) (UniProt P31645); assay: Inhibition of human SERT at 10 uM relative to control
[21] = target: Alpha-1A adrenergic receptor (Rattus norvegicus) (UniProt P43140); assay: Inhibition of rat adrenergic alpha 1A receptor at 10 uM relative to control
Chain of Alpha-1A adrenergic receptor (Rattus norvegicus) (P43140 whole entry): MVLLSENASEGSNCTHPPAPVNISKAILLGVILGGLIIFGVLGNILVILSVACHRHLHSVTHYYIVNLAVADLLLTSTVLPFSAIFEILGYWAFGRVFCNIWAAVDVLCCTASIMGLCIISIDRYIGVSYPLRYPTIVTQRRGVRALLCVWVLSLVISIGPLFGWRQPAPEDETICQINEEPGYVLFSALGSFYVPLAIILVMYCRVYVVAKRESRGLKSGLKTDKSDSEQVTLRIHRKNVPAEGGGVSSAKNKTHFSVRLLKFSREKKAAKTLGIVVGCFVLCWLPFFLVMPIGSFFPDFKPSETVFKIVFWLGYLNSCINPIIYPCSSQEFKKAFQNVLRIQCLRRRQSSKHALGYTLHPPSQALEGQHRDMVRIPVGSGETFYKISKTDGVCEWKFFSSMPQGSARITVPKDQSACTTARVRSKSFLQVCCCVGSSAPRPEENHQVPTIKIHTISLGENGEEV

[22] = Fraction unbound in mouse plasma at 5 uM after 4 hrs by equilibrium dialysis based LC/MS/MS analysis; type: ADME, cell-free
[23] = target: Metabotropic glutamate receptor 6 (Homo sapiens) (UniProt O15303); assay: Negative allosteric modulation of human mGlu6 receptor expressed in HEK/GIRK cells assessed as inhibition of glutamate induced-calcium mobilization preincubated for 2.3 mins followed by glutamate addition measured for 2.6 mins by Fluo-4 AM dye based fluorescence assay; type: functional, cell-based
Chain of Metabotropic glutamate receptor 6 (Homo sapiens) (O15303 whole entry): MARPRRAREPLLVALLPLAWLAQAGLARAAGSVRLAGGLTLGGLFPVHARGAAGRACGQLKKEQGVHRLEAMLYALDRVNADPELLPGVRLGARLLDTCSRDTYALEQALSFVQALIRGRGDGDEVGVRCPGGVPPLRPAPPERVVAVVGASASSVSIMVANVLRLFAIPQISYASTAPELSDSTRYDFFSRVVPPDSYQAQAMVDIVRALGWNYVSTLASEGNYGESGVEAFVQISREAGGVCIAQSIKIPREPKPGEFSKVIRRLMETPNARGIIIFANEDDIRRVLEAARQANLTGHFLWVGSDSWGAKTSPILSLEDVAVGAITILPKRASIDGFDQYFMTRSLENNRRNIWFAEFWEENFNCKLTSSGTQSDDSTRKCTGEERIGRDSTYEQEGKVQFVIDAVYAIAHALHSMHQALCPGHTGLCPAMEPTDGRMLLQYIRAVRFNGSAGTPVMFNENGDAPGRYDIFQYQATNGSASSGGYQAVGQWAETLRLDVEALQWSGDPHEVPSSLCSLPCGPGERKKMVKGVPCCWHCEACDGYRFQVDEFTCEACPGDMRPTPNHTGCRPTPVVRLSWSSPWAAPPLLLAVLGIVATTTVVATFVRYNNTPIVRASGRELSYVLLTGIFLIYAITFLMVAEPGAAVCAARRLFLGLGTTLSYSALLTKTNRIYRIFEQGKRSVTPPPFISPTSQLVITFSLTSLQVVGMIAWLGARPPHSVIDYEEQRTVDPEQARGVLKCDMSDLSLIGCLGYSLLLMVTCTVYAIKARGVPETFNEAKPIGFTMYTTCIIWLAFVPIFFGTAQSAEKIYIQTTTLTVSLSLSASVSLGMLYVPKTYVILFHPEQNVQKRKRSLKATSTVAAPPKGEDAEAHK

[24] = target: Adenosine receptor A1 (Homo sapiens) (UniProt P30542); assay: Inhibition of human adenosine A1 receptor at 10 uM relative to control
Chain of Adenosine receptor A1 (Homo sapiens) (P30542 whole entry): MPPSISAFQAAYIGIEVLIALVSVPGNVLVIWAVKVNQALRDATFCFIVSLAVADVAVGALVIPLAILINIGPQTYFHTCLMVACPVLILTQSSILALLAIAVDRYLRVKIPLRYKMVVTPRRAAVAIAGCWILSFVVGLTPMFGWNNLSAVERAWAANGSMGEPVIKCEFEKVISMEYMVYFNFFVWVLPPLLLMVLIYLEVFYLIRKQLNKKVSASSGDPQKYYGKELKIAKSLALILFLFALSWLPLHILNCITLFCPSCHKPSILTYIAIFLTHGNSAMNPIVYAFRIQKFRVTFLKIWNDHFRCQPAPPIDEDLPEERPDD

[25] = Unbound brain-to-plasma concentration ratio in rat; type: ADME; details: read-out: K(p,uu,brain)
[26] = target: Metabotropic glutamate receptor 3 (Rattus norvegicus) (UniProt P31422); assay: as §1, with “mobilization by measuring minimum glutamate response” for “mobilization”, “assay relative to glutamate” for “assay”; type: functional, cell-based
Chain of Metabotropic glutamate receptor 3 (Rattus norvegicus) (P31422 23-879 limits assumed): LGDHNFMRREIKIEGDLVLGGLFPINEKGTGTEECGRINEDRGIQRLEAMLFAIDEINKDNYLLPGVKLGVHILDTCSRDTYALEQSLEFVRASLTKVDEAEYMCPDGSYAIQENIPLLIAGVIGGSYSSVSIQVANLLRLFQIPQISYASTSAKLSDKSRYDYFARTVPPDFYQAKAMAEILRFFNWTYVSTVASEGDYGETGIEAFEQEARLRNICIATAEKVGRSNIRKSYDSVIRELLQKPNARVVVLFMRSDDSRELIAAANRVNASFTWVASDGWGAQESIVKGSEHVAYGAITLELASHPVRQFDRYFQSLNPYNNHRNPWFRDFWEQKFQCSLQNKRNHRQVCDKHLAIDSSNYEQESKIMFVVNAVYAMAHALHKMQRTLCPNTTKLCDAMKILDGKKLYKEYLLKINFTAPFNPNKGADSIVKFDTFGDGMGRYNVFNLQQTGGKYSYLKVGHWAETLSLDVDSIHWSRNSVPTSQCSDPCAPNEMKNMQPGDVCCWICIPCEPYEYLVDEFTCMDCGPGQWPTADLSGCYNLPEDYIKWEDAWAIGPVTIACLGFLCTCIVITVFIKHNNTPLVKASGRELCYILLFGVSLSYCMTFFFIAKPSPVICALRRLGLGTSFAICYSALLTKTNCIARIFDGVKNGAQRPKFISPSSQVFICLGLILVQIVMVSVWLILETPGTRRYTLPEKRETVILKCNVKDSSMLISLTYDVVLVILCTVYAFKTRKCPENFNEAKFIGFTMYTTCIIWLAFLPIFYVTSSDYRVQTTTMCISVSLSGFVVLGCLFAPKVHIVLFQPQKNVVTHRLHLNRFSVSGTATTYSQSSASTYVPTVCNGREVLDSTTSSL

[27] = target: L-type calcium channel, benzodiazepine site (Rattus norvegicus, UniProt P22002+P27732+Q02485); assay: Inhibition of rat L-type calcium channel benzodiazepine site at 10 uM relative to control; type: protein assay
[28] = target: Delta-type opioid receptor (Homo sapiens) (UniProt P41143); assay: Inhibition of human delta 1 opioid receptor at 10 uM relative to control
[29] = target: Acetylcholine receptor subunit alpha (Homo sapiens) (UniProt P02708); assay: Inhibition of human alpha1 nAChR bungarotoxin site at 10 uM relative to control
[30] = test system: Mus musculus; assay: Antidepressant activity in CD-1 mouse assessed as reduction in immobility time at 3 mg/kg administered ip 15 mins prior to test measured for 6 mins by tail suspension test; type: functional, organism-based
[31] = target: B1 bradykinin receptor (Homo sapiens) (UniProt P46663); assay: Inhibition of human bradykinin B1 receptor at 10 uM relative to control
[32] = target: Androgen receptor (Rattus norvegicus) (UniProt P15207); assay: Inhibition of rat androgen receptor at 10 uM relative to control
[33] = target: Prostaglandin E2 receptor EP4 subtype (Homo sapiens) (UniProt P35408); assay: Inhibition of human EP4 receptor at 10 uM relative to control
[34] = target: Gamma-aminobutyric acid type B receptor subunit 1 (Homo sapiens) (UniProt Q9UBS5); assay: Inhibition of human GABA-B1A receptor at 10 uM relative to control
[35] = species on record: Oryctolagus cuniculus; assay: Inhibition of rabbit P2X receptor at 10 uM relative to control
[36] = target: Metabotropic glutamate receptor 1 (Homo sapiens) (UniProt Q13255); assay: Negative allosteric modulation of human mGlu1 receptor expressed in TREX293 cells assessed as inhibition of glutamate induced-calcium mobilization preincubated for 2.3 mins followed by glutamate addition measured for 2.6 mins by Fluo-4 AM dye based fluorescence assay; type: functional, cell-based
[37] = target: Cannabinoid receptor 1 (Homo sapiens) (UniProt P21554); assay: Inhibition of human cannabinoid CB1 receptor at 10 uM relative to control
[38] = target: D(2) dopamine receptor (Homo sapiens) (UniProt P14416); assay: Inhibition of human dopamine D2S receptor at 10 uM relative to control
Chain of D(2) dopamine receptor (Homo sapiens) (P14416 whole entry): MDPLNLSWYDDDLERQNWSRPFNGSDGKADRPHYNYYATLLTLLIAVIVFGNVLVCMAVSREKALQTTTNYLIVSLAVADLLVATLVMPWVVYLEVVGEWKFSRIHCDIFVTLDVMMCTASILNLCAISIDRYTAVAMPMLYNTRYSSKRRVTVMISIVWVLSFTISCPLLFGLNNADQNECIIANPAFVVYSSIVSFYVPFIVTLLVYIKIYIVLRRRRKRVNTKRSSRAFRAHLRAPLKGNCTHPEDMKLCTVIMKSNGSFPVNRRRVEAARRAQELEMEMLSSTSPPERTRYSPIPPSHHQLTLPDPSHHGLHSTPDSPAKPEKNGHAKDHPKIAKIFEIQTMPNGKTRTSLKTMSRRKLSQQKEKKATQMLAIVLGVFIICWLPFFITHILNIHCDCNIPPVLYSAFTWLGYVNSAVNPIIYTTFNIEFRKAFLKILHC

[39] = target: Epidermal growth factor receptor (Homo sapiens) (UniProt P00533); assay: Inhibition of human EGF receptor at 10 uM relative to control
Chain of Epidermal growth factor receptor (Homo sapiens) (P00533 whole entry): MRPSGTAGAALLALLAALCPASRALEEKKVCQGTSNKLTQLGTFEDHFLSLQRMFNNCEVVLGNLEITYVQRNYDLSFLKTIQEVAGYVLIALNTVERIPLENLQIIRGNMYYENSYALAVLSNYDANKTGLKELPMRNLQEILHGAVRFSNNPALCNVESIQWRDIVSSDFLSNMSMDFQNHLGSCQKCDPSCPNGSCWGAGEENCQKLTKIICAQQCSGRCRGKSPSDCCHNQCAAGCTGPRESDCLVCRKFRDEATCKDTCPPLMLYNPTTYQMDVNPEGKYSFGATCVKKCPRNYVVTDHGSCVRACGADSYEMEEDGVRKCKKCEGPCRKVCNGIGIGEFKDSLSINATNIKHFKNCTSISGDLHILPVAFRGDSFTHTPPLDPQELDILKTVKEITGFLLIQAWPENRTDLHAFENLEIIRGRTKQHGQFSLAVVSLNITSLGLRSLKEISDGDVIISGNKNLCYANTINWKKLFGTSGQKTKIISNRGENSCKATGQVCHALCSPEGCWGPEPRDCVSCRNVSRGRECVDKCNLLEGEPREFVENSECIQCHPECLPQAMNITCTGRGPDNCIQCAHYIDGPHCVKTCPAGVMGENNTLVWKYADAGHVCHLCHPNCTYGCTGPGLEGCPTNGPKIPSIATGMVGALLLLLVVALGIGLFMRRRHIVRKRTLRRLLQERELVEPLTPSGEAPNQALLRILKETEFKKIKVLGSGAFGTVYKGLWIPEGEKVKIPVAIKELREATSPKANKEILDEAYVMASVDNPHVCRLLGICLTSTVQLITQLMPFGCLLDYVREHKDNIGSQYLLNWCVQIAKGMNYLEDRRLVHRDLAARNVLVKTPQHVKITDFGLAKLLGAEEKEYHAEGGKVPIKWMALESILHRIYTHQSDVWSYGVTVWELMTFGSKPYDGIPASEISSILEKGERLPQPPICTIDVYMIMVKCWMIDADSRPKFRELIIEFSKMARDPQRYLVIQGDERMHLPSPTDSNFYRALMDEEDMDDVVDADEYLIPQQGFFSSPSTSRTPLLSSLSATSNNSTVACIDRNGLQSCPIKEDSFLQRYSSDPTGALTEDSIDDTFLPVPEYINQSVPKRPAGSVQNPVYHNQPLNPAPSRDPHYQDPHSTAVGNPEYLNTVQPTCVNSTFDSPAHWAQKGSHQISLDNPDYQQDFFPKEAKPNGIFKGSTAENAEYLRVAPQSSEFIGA

## C[C@@H](COc1ccn(-c2ccc(F)cc2)c(=O)c1)Oc1ccccc1
[1]
  inhibition: > 50%
[2]
  inhibition: > 50%
[3]
  inhibition: > 50%
[4]
  solubility kinetic: 98 µM (≈ 33.3 µg/mL)
[5]
  inhibition: > 50%
[6]
  inhibition: > 50%
[7]
  inhibition: > 50%
[8]
  Kp: 1.17
[9]
  inhibition: > 50%
[10]
  IC50: > 30000 nM
[11]
  Kp uu: 0.27
[12]
  inhibition: > 50%
[13]
  IC50: 245 nM
[14]
  inhibition at 10 µM: > 50%
[15]
  inhibition: > 50%
[16]
  inhibition: > 50%
[17]
  inhibition: > 50%
[18]
  inhibition: > 50%
[19]
  inhibition: > 50%
[20]
  inhibition: > 50%
[21]
  inhibition: > 50%
[22]
  fu: 0.18
[23]
  inhibition: inactive
[24]
  inhibition: > 50%
[25]
  Kp uu: 0.4
[26]
  Emin: 3.33%
[27]
  inhibition at 10 µM: > 50%
[28]
  inhibition: > 50%
[29]
  inhibition: > 50%
[30]
  Activity: Active
[31]
  inhibition: > 50%
[32]
  inhibition: > 50%
[33]
  inhibition: > 50%
[34]
  inhibition: > 50%
[35]
  inhibition: > 50%
[36]
  inhibition: inactive
[37]
  inhibition: > 50%
[38]
  inhibition: > 50%
[39]
  inhibition: > 50%
